target: T1, Menin MLL 4-43 (Homo sapiens, UniProt O00255); test: Inhibition of the menin-MLL interaction (Menin MLL 4-43 IC50); format: binding; conditions: Formula II inhibitors of menin (Table 4G)
T1 construct: 6His
T1 sequence (O00255 1-610): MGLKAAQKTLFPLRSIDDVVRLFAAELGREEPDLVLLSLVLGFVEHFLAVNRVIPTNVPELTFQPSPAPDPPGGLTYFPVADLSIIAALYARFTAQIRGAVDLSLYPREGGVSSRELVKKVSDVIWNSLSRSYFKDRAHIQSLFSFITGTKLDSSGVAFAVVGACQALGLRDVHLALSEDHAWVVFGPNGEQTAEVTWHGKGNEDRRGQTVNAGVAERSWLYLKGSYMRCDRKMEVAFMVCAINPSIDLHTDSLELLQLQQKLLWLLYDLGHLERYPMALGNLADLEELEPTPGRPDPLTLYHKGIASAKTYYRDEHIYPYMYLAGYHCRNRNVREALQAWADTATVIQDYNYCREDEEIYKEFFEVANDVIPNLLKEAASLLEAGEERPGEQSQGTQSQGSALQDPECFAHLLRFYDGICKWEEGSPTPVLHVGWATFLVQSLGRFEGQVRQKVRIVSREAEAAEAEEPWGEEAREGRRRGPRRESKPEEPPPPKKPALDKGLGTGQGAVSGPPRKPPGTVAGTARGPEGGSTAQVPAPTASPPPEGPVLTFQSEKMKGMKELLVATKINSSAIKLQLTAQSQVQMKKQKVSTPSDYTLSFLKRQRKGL
Text: This example illustrates an assay effective in monitoring the binding of MLL to menin. […] A fluorescein-labeled peptide containing the high affinity menin binding motif found in MLL is produced according to Yokoyama et al. (Cell, 2005, 123(2): 207-218), herein incorporated by reference in its entirety. Binding of the labeled peptide (1.7 kDa) to the much larger menin (˜67 kDa) is accompanied by a significant change in the rotational correlation time of the fluorophore, resulting in a substantial increase in the fluorescence polarization and fluorescence anisotropy (excitation at 500 nm, emission at 525 nm).
A homogeneous time-resolve fluorescence (HTRF) assay is utilized as a secondary assay to confirm the results of the FP assay. In some embodiments, the HTRF assay is the primary assay and the FP assay is used as a secondary assay to confirm results. HTRF is based on the non-radiative energy transfer of the long-lived emission from the Europium cryptate (Eu^3+-cryptate) donor to the allophycocyanin (XL665) acceptor, combined with time-resolved detection. An Eu^3+-cryptate donor is conjugated with mouse anti-6His monoclonal antibody (which binds His-tagged menin) and XL665-acceptor is conjugate to streptavidin (which binds biotinylated MLL peptide). When these two fluorophores are brought together by the interaction of menin with the MLL peptide, energy transfer to the acceptor results in an increase in fluorescence emission at 665 nm and increased HTRF ratio (emission intensity at 665 nm/emission intensity at 620 nm). Inhibition of the menin-MLL interaction separates the donor from the acceptor, resulting in a decrease in emission at 665 nm and decreased HTRF ratio.

**Q.** `Cc1c(CN2CCC(Nc3nc(N)nc4sc(CC(F)(F)F)cc34)CC2)ccc2[nH]c(C#N)cc12` [II-3] was tested. Which IC50 did it give?
**A.** ≤ 100 nM

**Q.** Which IC50 does the source give for `Cc1c(CN2CCC(Nc3nc(N)nc4sc(CC(F)(F)F)cc34)CC2)ccc2c1cc(C#N)n2Cc1cn[nH]c1` [II-4] here?
**A.** ≤ 100 nM

**Q.** For `Cc1c(CN2CCC(Nc3nc(Cl)nc4sc(CC(F)(F)F)cc34)CC2)ccc2[nH]c(C#N)cc12` [II-7], which IC50 is on record?
**A.** > 10000 nM

**Q.** With `Cc1nc(NC2CCN(Cc3ccc4c(cc(C#N)n4Cc4cn[nH]c4)c3C)CC2)c2cc(CC(F)(F)F)sc2n1` [II-10] as the molecule, how does the IC50 read?
**A.** ≤ 100 nM

**Q.** For `Cc1c(CN2CCC(Nc3nc(C(F)(F)F)nc4sc(CC(F)(F)F)cc34)CC2)ccc2[nH]c(C#N)cc12` [II-11], which IC50 is on record?
**A.** 100 to 1000 nM

**Q.** `Cc1c(CN2CCC(Nc3nc(C#N)nc4sc(CC(F)(F)F)cc34)CC2)ccc2c1cc(C#N)n2Cc1cn[nH]c1` [II-14] was tested. Which IC50 did it give?
**A.** 1000 to 10000 nM

**Q.** Which IC50 does the source give for `C=Cc1nc(NC2CCN(Cc3ccc4[nH]c(C#N)cc4c3C)CC2)c2cc(CC(F)(F)F)sc2n1` [II-15] here?
**A.** 100 to 1000 nM

**Q.** Which IC50 does the source give for `Cc1c(CN2CCC(Nc3nc(N)nc4sc(CC(F)(F)F)cc34)CC2)ccc2c1cc(C#N)n2Cc1cc[nH]n1` [II-16] here?
**A.** 100 to 1000 nM

**Q.** Which IC50 does the source give for `C#Cc1nc(NC2CCN(Cc3ccc4c(cc(C#N)n4Cc4cn[nH]c4)c3C)CC2)c2cc(CC(F)(F)F)sc2n1` [II-17] here?
**A.** > 10000 nM

**Q.** `Cc1c(CN2CCC(Nc3nc(C(F)F)nc4sc(CC(F)(F)F)cc34)CC2)ccc2c1cc(C#N)n2Cc1cn[nH]c1` [II-18] was tested. Which IC50 did it give?
**A.** > 10000 nM

**Q.** With `C=CC(=O)Nc1ccc(CCC2C(C#N)=Cc3c2ccc(CN2CCC(Nc4nc(N)nc5sc(CC(F)(F)F)cc45)CC2)c3C)cn1` (stereo not drawn) [II-19] as the molecule, how does the IC50 read?
**A.** 100 to 1000 nM

same assay, conditions: Formula III inhibitors of menin (Table 4h)

**Q.** `Cc1c(CN2CCC(Nc3ncnc4sc(CC(F)(F)F)cc34)C(F)(F)C2)ccc2[nH]c(C#N)cc12` (stereo not drawn) [III-3] was tested. Which IC50 did it give?
**A.** > 10000 nM

same assay, conditions: Formula IV inhibitors of menin (Table 4i)

**Q.** For `Cc1c(CN2CCC(Nc3ncnc4sc(CC(F)(F)F)cc34)CC2)cnc2[nH]c(C#N)cc12` [IV-2], which IC50 is on record?
**A.** > 10000 nM

**Q.** Which IC50 does the source give for `FC(F)(F)Cc1cc2c(NC3CCN(Cc4ccc5[nH]ncc5c4)CC3)ncnc2s1` [IV-8] here?
**A.** 100 to 1000 nM

**Q.** For `Cc1c(CN2CCC(Nc3ncnc4sc(CC(F)(F)F)cc34)CC2)ccc2[nH]ncc12` [IV-9], which IC50 is on record?
**A.** 1000 to 10000 nM

same assay, conditions: Formula V inhibitors of menin (Table 4J)

**Q.** For `Cc1c(CN2CCN(C(=O)c3ncnc4sc(CC(F)(F)F)cc34)CC2)ccc2[nH]c(C#N)cc12` [Compound V-3], which IC50 is on record?
**A.** > 10000 nM

**Q.** How did the IC50 turn out when `Cc1c(CN2CC(Nc3ncnc4sc(CC(F)(F)F)cc34)C2)ccc2[nH]c(C#N)cc12` [Compound V-13] was run?
**A.** > 10000 nM

**Q.** For `Cc1c(CN2CCC(Nc3ncnc4sc(CC(F)(F)F)cc34)C2)ccc2[nH]c(C#N)cc12` (stereo not drawn) [Compound V-15], which IC50 is on record?
**A.** > 10000 nM

Reference: patent US10077271B2, “Methods and compositions for inhibiting the interaction of menin with MLL proteins” (Kura Oncology, Inc., priority 2015, dated 2018)
